Consider twelve molecules from patent publication US8119621B2, “Tetrahydro-cyclopentyl pyrazole cannabinoid modulators” (Janssen Pharmaceutica N.V., priority 2005, dated 2012).

One experiment deals with T1, human CB2 receptor (Homo sapiens, UniProt P34972).
T1 construct: expressed in transfected cells; host or cells: SK-N-MC cells, stably transfected with pcDNA3 CB-2 (human); semi-purified membrane pellet
As to the kind of experiment: Binding assay for CB2 agonists or inverse agonists ([3H]-CP-55,940 displacement, SK-N-MC membranes). To be noted: read-out: CB2 receptor binding percent inhibition. The procedure: (§1) The human CB1 and CB2 receptors were stably expressed in SK-N-MC cells transfected with pcDNA3 CB-1 (human) or pcDNA3 CB-2 (human). The cells were grown in T-180 cell culture flasks under standard cell culture conditions at 37° C. in a 5% CO2 atmosphere. The cells were harvested by trysinization and homogenized in a homogenization buffer (10 mM Tris, 0.2 mM MgCl2, 5 mM KCl, with protease inhibitors aprotinin, leupeptin, pepstatin A and bacitracin) and centrifuged (2000 g). The supernatant was then centrifuged in 2M sucrose (31,300 g) to produce a semi-purified membrane pellet. The pellet was resuspended in homogenization and stored at −80° C.
(§2) On the day of the assay, the pellet was thawed on ice and diluted in assay buffer (50 mM Tris-HCl, 5 mM MgCl2, 2.5 mM EDTA, 0.5 mg/mL fatty acid free bovine serum albumin, pH 7.5). […] The plate was covered and incubated for 90 minutes at 30° C. The contents were then aspirated onto a Packard Unifilter GF/C filter bottom plate prewet with 0.5% polyethyleneimine. The wells of the polypropylene plate were rinsed and aspirated seven times with a 0.9% saline-0.5% Tween 20 solution. The Unifilter plate was dried, a scintillation cocktail was added to each well and the counts representing binding were quantitated in a TopCount scintillation counter.
(§3) For compounds tested, an IC50 binding value was obtained from percent inhibition studies in which various test concentrations were used. The binding value was calculated by linear regression.

Experiment [1] has as its target T2, human CB1 receptor (Homo sapiens, UniProt P21554).
T2 construct: expressed in transfected cells; host or cells: SK-N-MC cells, stably transfected with pcDNA3 CB-1 (human); semi-purified membrane pellet
As to the kind of experiment: Functional cell-based assay, CB1 receptor mediated change in CRE β-gal expression (adenylate cyclase activity). The note with it: for CB1 Receptor Functional Activity (change in functional activity): one compound concentration, vehicle treated cell = 100%. The text has this: The CB1 and CB2 receptors are G-protein coupled receptors (GPCR), which influence cell function via the Gi-protein. These receptors modulate the activity of intracellular adenylate cyclase, which in turn produces the intracellular signal messenger cyclic-AMP (cAMP).
At baseline, or during non-ligand bound conditions, these receptors are constitutively active and tonically suppress adenylate cyclase activity. The binding of an agonist causes further receptor activation and produces additional suppression of adenylate cyclase activity. The binding of an inverse agonist inhibits the constitutive activity of the receptors and results in an increase in adenylate cyclase activity.
Test compounds were evaluated in SK-N-MC cells which, using standard transfection procedures, were stably transfected with human cDNA for pcDNA3-CRE β-gal and pcDNA3 CB1 receptor (human) or pcDNA3 CB2 receptor (human). By expressing CRE β-gal, the cells produced β-galactosidase in response to CRE promoter activation by cAMP. Cells expressing CRE β-gal and either the human CB1 or CB2 receptor will produce less β-galactosidase when treated with a CB1/CB2 agonist and will produce more β-galactosidase when treated with a CB1/CB2 inverse agonist.
The cells were grown in 96-well plates under standard cell culture conditions at 37° C. in a 5% CO2 atmosphere. After 3 days, the media was removed and a test compound in media (wherein the media was supplemented with 2 mM L-glutamine, […] sodium pyruvate, 0.1% low fatty acid FBS (fetal bovine serum) and antibiotics) was added to the cell. The plates were incubated for 30 minutes at 37° C. and the plate cells were then treated with forskolin over a 4-6 hour period, then washed and lysed. The β-galactosidase activity was quantitated using commercially available kit reagents (Promega Corp. Madison, Wis.) and a Vmax Plate Reader (Molecular Devices, Inc).
The change in β-galactosidase activity was determined by setting a vehicle treated cell's activity value at 100% and expressing the β-galactosidase activity measured in a corresponding compound treated cell as a percent of the vehicle treated cell activity.
The EC50 value for functional activity for compounds tested was calculated by linear regression and was obtained from studies in which varying compound concentrations were used.
Where an EC50 value was not obtained for a test compound, the value shown (in %) represents change in functional activity and was obtained from a study in which one compound concentration was used.

In experiment [2] the target is T2, human CB1 receptor. The experiment in a line: Binding assay for CB1 agonists or inverse agonists ([3H]-CP-55,940 displacement, SK-N-MC membranes). The note with it: for inhibition at 0.25 µM: read-out: CB1 receptor binding percent inhibition. The procedure:
as §1, §2, §3

The mark [3] stands for this setting: test concentration 0.25 μM (footnote 3).
The mark [4] stands for this setting: CB1 Receptor Functional Inverse Agonist EC50, SK-N-MC cells, CRE β-gal, forskolin.

SMILES strings stand for the structures. pEC50, pIC50: −log10 of the molar value. Read-outs that look alike come from different tables or passages of the source.

T2 sequence (P21554 whole entry): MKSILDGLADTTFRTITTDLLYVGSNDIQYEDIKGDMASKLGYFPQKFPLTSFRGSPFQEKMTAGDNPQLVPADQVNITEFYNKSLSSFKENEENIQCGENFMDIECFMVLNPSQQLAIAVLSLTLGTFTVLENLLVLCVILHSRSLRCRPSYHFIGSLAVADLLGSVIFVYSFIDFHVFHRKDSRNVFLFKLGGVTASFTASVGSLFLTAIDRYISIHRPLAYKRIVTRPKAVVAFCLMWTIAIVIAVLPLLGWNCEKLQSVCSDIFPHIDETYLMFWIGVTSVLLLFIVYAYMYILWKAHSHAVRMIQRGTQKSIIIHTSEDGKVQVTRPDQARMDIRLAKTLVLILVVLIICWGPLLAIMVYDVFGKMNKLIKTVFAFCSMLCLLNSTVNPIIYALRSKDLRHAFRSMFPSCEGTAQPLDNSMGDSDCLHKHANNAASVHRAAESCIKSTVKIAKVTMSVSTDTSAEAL
T1 sequence (P34972 whole entry): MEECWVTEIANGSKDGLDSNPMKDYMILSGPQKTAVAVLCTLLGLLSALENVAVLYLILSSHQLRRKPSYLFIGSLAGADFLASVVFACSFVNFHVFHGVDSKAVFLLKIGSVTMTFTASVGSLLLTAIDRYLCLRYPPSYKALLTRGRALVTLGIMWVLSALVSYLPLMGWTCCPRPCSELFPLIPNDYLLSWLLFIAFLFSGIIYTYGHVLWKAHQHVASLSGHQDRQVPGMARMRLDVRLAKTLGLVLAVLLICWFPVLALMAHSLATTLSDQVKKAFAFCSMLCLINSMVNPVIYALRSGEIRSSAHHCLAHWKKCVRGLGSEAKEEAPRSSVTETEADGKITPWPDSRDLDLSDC

Turning to `O=S(=O)(/C=C/c1nn(-c2ccc(F)cc2F)c2c1CCC2Cc1cccc(F)c1)NN1CCCCC1` (stereo not shown) [Cpd 3, (2E)-2-[1-(2,4-difluoro-phenyl)-6-(3-fluoro-benzyl)-1,4,5,6-tetrahydro-cyclopentapyrazol-3-yl]-ethenesulfonic acid piperidin-1-ylamide], the inhibition at 0.25 µM at human CB2 receptor (setting [3]) was 0%; at human CB1 receptor [2] (setting [3]) it was 22%. This molecule showed a pEC50 on human CB1 receptor [1] of 5.25.

`C[C@@H](NC(=O)c1nn(-c2ccc(F)cc2F)c2c1CCC2Cc1cccc(F)c1)C1CCCCC1` (stereo partly drawn) [Cpd 21, 1-(2,4-difluoro-phenyl)-6-(3-fluoro-benzyl)-1,4,5,6-tetrahydro-cyclopentapyrazole-3-carboxylic acid [(1R)-1-cyclohexyl-ethyl]-amide]: the inhibition at 0.25 µM on human CB2 receptor was determined as 61%. The pEC50 on human CB1 receptor [1] (setting [4]) was 7.40. Besides, at human CB1 receptor [2], the pIC50 was 7.10 and the inhibition at 0.25 µM worked out at 67%.

`C[C@H](NC(=O)c1nn(-c2ccc(F)cc2F)c2c1CCC2Cc1cccc(F)c1)C1CCCCC1` (stereo partly drawn) [Cpd 20, 1-(2,4-difluoro-phenyl)-6-(3-fluoro-benzyl)-1,4,5,6-tetrahydro-cyclopentapyrazole-3-carboxylic acid [(1S)-1-cyclohexyl-ethyl]-amide]: the inhibition at 0.25 µM was 44% on human CB2 receptor and 70% at human CB1 receptor [2]. The “CB1 Receptor Functional Activity (change in functional activity)” value on human CB1 receptor [1] amounted to 37%.

With `C[C@H](NS(=O)(=O)/C=C/c1nn(-c2ccc(F)cc2F)c2c1CCC2Cc1cccc(F)c1)c1ccccc1` (stereo partly drawn) [Cpd 1, (2E)-2-[1-(2,4-difluoro-phenyl)-6-(3-fluoro-benzyl)-1,4,5,6-tetrahydro-cyclopentapyrazol-3-yl]-ethenesulfonic acid [(1S)-1-phenyl-ethyl]-amide], the inhibition at 0.25 µM stood at 14% at human CB2 receptor and 5% on human CB1 receptor [2]. The same molecule had a pEC50 on human CB1 receptor [1] (CB1 receptor functional agonist EC50, SK-N-MC cells, CRE β-gal, functional agonist) of 7.40.

Regarding `O=C(NN1CCCCC1)c1nn(-c2ccc(F)cc2F)c2c1CCC2Cc1cccc(F)c1` (stereo not shown) [Cpd 6, 1-(2,4-difluoro-phenyl)-6-(3-fluoro-benzyl)-1,4,5,6-tetrahydro-cyclopentapyrazole-3-carboxylic acid piperidin-1-ylamide], the inhibition at 0.25 µM on human CB2 receptor (setting [3]) turned out to be 12%; at human CB1 receptor [2] (setting [3]), 4%. The molecule further gave a pEC50 at human CB1 receptor [1] of 6.70.

Take `O=C(c1nn(-c2ccc(F)cc2F)c2c1CCC2Cc1cccc(F)c1)N1CCCCC1` (stereo not shown) [Cpd 8, [1-(2,4-difluoro-phenyl)-6-(3-fluoro-benzyl)-1,4,5,6-tetrahydro-cyclopentapyrazol-3-yl]-piperidin-1-yl-methanone]: the inhibition at 0.25 µM on human CB2 receptor (setting [3]) is 0%; at human CB1 receptor [2] (setting [3]), 6%. The “CB1 Receptor Functional Activity (change in functional activity)” value on human CB1 receptor [1] amounted to 21%.

Consider `C[C@H](NC(=O)c1nn(-c2ccc(F)cc2F)c2c1CCC2Cc1cccc(F)c1)c1ccccc1` (stereo partly drawn) [Cpd 18, 1-(2,4-difluoro-phenyl)-6-(3-fluoro-benzyl)-1,4,5,6-tetrahydro-cyclopentapyrazole-3-carboxylic acid [(1S)-1-phenyl-ethyl]-amide], for which the inhibition at 0.25 µM on human CB2 receptor (setting [3]) turned out to be 19%; on human CB1 receptor [2] (setting [3]), 66%. The pEC50 on human CB1 receptor [1] is 5.00.

Consider `COC(=O)[C@@H](Cc1ccc(O)cc1)NC(=O)c1nn(-c2ccc(F)cc2F)c2c1CCC2Cc1cccc(F)c1` (stereo partly drawn) [Cpd 15, (2R)-2-{[1-(2,4-difluoro-phenyl)-6-(3-fluoro-benzyl)-1,4,5,6-tetrahydro-cyclopentapyrazole-3-carbonyl]-amino}-3-(4-hydroxy-phenyl)-propionic acid methyl ester], for which the inhibition at 0.25 µM on human CB2 receptor (setting [3]) was 50%; on human CB1 receptor [2] (setting [3]), 54%. Further, the “CB1 Receptor Functional Activity (change in functional activity)” value on human CB1 receptor [1] is listed as −15%.

As to `C[C@@H](NC(=O)c1nn(-c2ccc(F)cc2F)c2c1CCC2Cc1cccc(F)c1)c1ccccc1` (stereo partly drawn) [Cpd 19, 1-(2,4-difluoro-phenyl)-6-(3-fluoro-benzyl)-1,4,5,6-tetrahydro-cyclopentapyrazole-3-carboxylic acid [(1R)-1-phenyl-ethyl]-amide], the inhibition at 0.25 µM amounted to 26% at human CB2 receptor (setting [3]) and 52% at human CB1 receptor [2] (setting [3]). The pEC50 at human CB1 receptor [1] was 6.70.

As for `O=S(=O)(/C=C/c1nn(-c2ccc(F)cc2F)c2c1CCC2Cc1cccc(F)c1)NN1CCOCC1` (stereo not shown) [Cpd 2, (2E)-2-[1-(2,4-difluoro-phenyl)-6-(3-fluoro-benzyl)-1,4,5,6-tetrahydro-cyclopentapyrazol-3-yl]-ethenesulfonic acid morpholin-4-ylamide], the inhibition at 0.25 µM on human CB2 receptor (setting [3]) turned out to be 21%; on human CB1 receptor [2] (setting [3]) it was 0%. The “CB1 Receptor Functional Activity (change in functional activity)” value at human CB1 receptor [1] is 58%.

With `C[C@@H](NS(=O)(=O)/C=C/c1nn(-c2ccc(F)cc2F)c2c1CCC2Cc1cccc(F)c1)C1CCCCC1` (stereo partly drawn) [Cpd 5, (2E)-2-[1-(2,4-difluoro-phenyl)-6-(3-fluoro-benzyl)-1,4,5,6-tetrahydro-cyclopentapyrazol-3-yl]-ethenesulfonic acid [(1R)-1-cyclohexyl-ethyl]-amide], the inhibition at 0.25 µM at human CB2 receptor (setting [3]) amounted to 4%; on human CB1 receptor [2] (setting [3]), 44%. The pEC50 at human CB1 receptor [1] (setting [4]) was 6.70.

As for `C[C@@H](NS(=O)(=O)/C=C/c1nn(-c2ccc(F)cc2F)c2c1CCC2Cc1cccc(F)c1)c1ccccc1` (stereo partly drawn) [Cpd 4, (2E)-2-[1-(2,4-difluoro-phenyl)-6-(3-fluoro-benzyl)-1,4,5,6-tetrahydro-cyclopentapyrazol-3-yl]-ethenesulfonic acid [(1R)-1-phenyl-ethyl]-amide], the inhibition at 0.25 µM on human CB2 receptor was determined as 17%; on human CB1 receptor [2], 24%. Also, on human CB1 receptor [1], the “CB1 Receptor Functional Activity (change in functional activity)” value is given as 34%.
